Tests used:
[1] = The drug is tested on Z-029 corresponding to rat gut metagenome with ENA study accession number: PRJEB37062 and ENA sample accession number: ERS12561828 for biotransformation under anaerobic condition. The drug concentrations were measured over 9 timepoints collected between 0 and 24 hours of incubation by liquid-chromatography-coupled mass spectrometry (LC–MS); conditions: 2 µM
[2] = The drug is tested on Z-028 corresponding to mouse gut metagenome with ENA study accession number: PRJEB37062 and ENA sample accession number: ERS12561827 for biotransformation under anaerobic condition. The drug concentrations were measured over 9 timepoints collected between 0 and 24 hours of incubation by liquid-chromatography-coupled mass spectrometry (LC–MS); conditions: 2 µM
[3] = The drug is tested on Z-022 corresponding to mouse gut metagenome with ENA study accession number: PRJEB37062 and ENA sample accession number: ERS12561821 for biotransformation under anaerobic condition. The drug concentrations were measured over 9 timepoints collected between 0 and 24 hours of incubation by liquid-chromatography-coupled mass spectrometry (LC–MS); conditions: 2 µM
[4] = The drug is tested on Z-020 corresponding to rabbit gut metagenome with ENA study accession number: PRJEB37062 and ENA sample accession number: ERS12561819 for biotransformation under anaerobic condition. The drug concentrations were measured over 9 timepoints collected between 0 and 24 hours of incubation by liquid-chromatography-coupled mass spectrometry (LC–MS); conditions: 2 µM
[5] = The drug is tested on Z-019 corresponding to rat gut metagenome with ENA study accession number: PRJEB37062 and ENA sample accession number: ERS12561818 for biotransformation under anaerobic condition. The drug concentrations were measured over 9 timepoints collected between 0 and 24 hours of incubation by liquid-chromatography-coupled mass spectrometry (LC–MS); conditions: 2 µM
[6] = The drug is tested on Z-018 corresponding to pig gut metagenome with ENA study accession number: PRJEB37062 and ENA sample accession number: ERS12561817 for biotransformation under anaerobic condition. The drug concentrations were measured over 9 timepoints collected between 0 and 24 hours of incubation by liquid-chromatography-coupled mass spectrometry (LC–MS); conditions: 2 µM
[7] = The drug is tested on Z-008 corresponding to metagenome with ENA study accession number: PRJEB37062 and ENA sample accession number: ERS12561808 for biotransformation under anaerobic condition. The drug concentrations were measured over 9 timepoints collected between 0 and 24 hours of incubation by liquid-chromatography-coupled mass spectrometry (LC–MS); conditions: 2 µM
[8] = The drug is tested on WLS-310 corresponding to human gut metagenome with ENA study accession number: PRJEB37062 and ENA sample accession number: ERS12561785 for biotransformation under anaerobic condition. The drug concentrations were measured over 9 timepoints collected between 0 and 24 hours of incubation by liquid-chromatography-coupled mass spectrometry (LC–MS); conditions: 2 µM
[9] = The drug is tested on WLS-098 corresponding to human gut metagenome with ENA study accession number: PRJEB37062 and ENA sample accession number: ERS12561754 for biotransformation under anaerobic condition. The drug concentrations were measured over 9 timepoints collected between 0 and 24 hours of incubation by liquid-chromatography-coupled mass spectrometry (LC–MS); conditions: 2 µM
[10] = The drug is tested on WLS-073 corresponding to human gut metagenome with ENA study accession number: PRJEB37062 and ENA sample accession number: ERS12561749 for biotransformation under anaerobic condition. The drug concentrations were measured over 9 timepoints collected between 0 and 24 hours of incubation by liquid-chromatography-coupled mass spectrometry (LC–MS); conditions: 2 µM
[11] = The drug is tested on WLS-069 corresponding to human gut metagenome with ENA study accession number: PRJEB37062 and ENA sample accession number: ERS12561748 for biotransformation under anaerobic condition. The drug concentrations were measured over 9 timepoints collected between 0 and 24 hours of incubation by liquid-chromatography-coupled mass spectrometry (LC–MS); conditions: 2 µM
[12] = The drug is tested on WLS-039 corresponding to human gut metagenome with ENA study accession number: PRJEB37062 and ENA sample accession number: ERS12561746 for biotransformation under anaerobic condition. The drug concentrations were measured over 9 timepoints collected between 0 and 24 hours of incubation by liquid-chromatography-coupled mass spectrometry (LC–MS); conditions: 2 µM
[13] = The drug is tested on WLS-038 corresponding to human gut metagenome with ENA study accession number: PRJEB37062 and ENA sample accession number: ERS12561745 for biotransformation under anaerobic condition. The drug concentrations were measured over 9 timepoints collected between 0 and 24 hours of incubation by liquid-chromatography-coupled mass spectrometry (LC–MS); conditions: 2 µM
[14] = The drug is tested on WLS-006 corresponding to human gut metagenome with ENA study accession number: PRJEB37062 and ENA sample accession number: ERS12561741 for biotransformation under anaerobic condition. The drug concentrations were measured over 9 timepoints collected between 0 and 24 hours of incubation by liquid-chromatography-coupled mass spectrometry (LC–MS); conditions: 2 µM
[15] = human gut metagenome, 24 h, 2 µM
[16] = human gut metagenome, 24 h, 2 µM; remark: listed apart in the source
[17] = human gut metagenome, 24 h, 2 µM; remark: listed apart in the source
[18] = human gut metagenome, 24 h, 2 µM; remark: listed apart in the source
[19] = human gut metagenome, 24 h, 2 µM; remark: listed apart in the source
[20] = human gut metagenome, 24 h, 2 µM; remark: listed apart in the source
Note: call rule not given here.

SMILES	Bacterial Biotransformation [1]	Bacterial Biotransformation [2]	Bacterial Biotransformation [3]	Bacterial Biotransformation [4]	Bacterial Biotransformation [5]	Bacterial Biotransformation [6]	Bacterial Biotransformation [7]	Bacterial Biotransformation [8]	Bacterial Biotransformation [9]	Bacterial Biotransformation [10]	Bacterial Biotransformation [11]	Bacterial Biotransformation [12]	Bacterial Biotransformation [13]	Bacterial Biotransformation [14]	Bacterial Biotransformation [15]	Bacterial Biotransformation [16]	Bacterial Biotransformation [17]	Bacterial Biotransformation [18]	Bacterial Biotransformation [19]	Bacterial Biotransformation [20]
CC(=O)Nc1ccc(OC(C)=O)cc1 [DIACETAMATE]	Compound metabolized	Compound metabolized	Compound metabolized	Compound metabolized	Compound metabolized	Compound metabolized	Compound metabolized	Compound metabolized	Compound metabolized	Compound metabolized	Compound metabolized	Compound metabolized	Compound metabolized	Compound metabolized	Compound metabolized	Compound metabolized	Compound metabolized	Compound metabolized	Compound metabolized	
C#C[C@]1(OC(C)=O)CC[C@H]2[C@@H]3CCC4=CC(=O)CC[C@@H]4[C@H]3CC[C@@]21C [NORETHINDRONE ACETATE]	Compound metabolized	Compound metabolized	Compound metabolized	Compound metabolized	Compound metabolized	Compound metabolized	Compound metabolized		Compound metabolized	Compound metabolized	Compound metabolized	Compound metabolized	Compound metabolized		Compound metabolized	Compound metabolized	Compound metabolized	Compound metabolized	Compound metabolized	Compound metabolized
CC(=O)O[C@H]1C(=O)[C@@]2(C)[C@H]([C@H](OC(=O)c3ccccc3)[C@]3(O)C[C@H](OC(=O)[C@H](O)[C@@H](NC(=O)c4ccccc4)c4ccccc4)C(C)=C1C3(C)C)[C@]1(OC(C)=O)CO[C@@H]1C[C@@H]2O [PACLITAXEL]	Compound NOT metabolized	Compound metabolized	Compound metabolized	Compound metabolized	Compound NOT metabolized	Compound metabolized	Compound NOT metabolized	Compound NOT metabolized	Compound NOT metabolized	Compound metabolized	Compound metabolized	Compound metabolized	Compound metabolized	Compound metabolized	Compound NOT metabolized	Compound NOT metabolized		Compound NOT metabolized	Compound metabolized	Compound metabolized
COc1cc(NC(C)CCCN)c2ncccc2c1.O=P(O)(O)O.O=P(O)(O)O (centres undefined) [PRIMAQUINE PHOSPHATE]	Compound NOT metabolized	Compound NOT metabolized	Compound NOT metabolized	Compound NOT metabolized	Compound NOT metabolized	Compound NOT metabolized	Compound NOT metabolized	Compound NOT metabolized	Compound metabolized	Compound NOT metabolized	Compound metabolized	Compound metabolized	Compound NOT metabolized		Compound NOT metabolized	Compound metabolized	Compound metabolized	Compound NOT metabolized	Compound NOT metabolized	Compound NOT metabolized
COc1cc2nc(N3CCN(C(=O)C4CCCO4)CC3)nc(N)c2cc1OC (centres undefined) [TERAZOSIN]	Compound NOT metabolized	Compound NOT metabolized	Compound NOT metabolized	Compound NOT metabolized	Compound NOT metabolized	Compound metabolized	Compound NOT metabolized	Compound metabolized	Compound metabolized	Compound metabolized		Compound NOT metabolized	Compound NOT metabolized	Compound metabolized	Compound NOT metabolized	Compound metabolized	Compound NOT metabolized	Compound NOT metabolized	Compound NOT metabolized	Compound NOT metabolized

From ChEMBL document CHEMBL5724914, “Linking interpersonal differences in gut microbiota composition and drug biotransformation activity” (2024)
